One assay concerns the target KPC-2 (Klebsiella pneumoniae, UniProt Q9F663). Put plainly: Ki, nitrocefin cleavage by purified enzyme, KPC-2. Format: biochemical. The following applies: nitrocefin reporter substrate; read-out: Ki (KPC-2, NCF). Put shortly:
(§1)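 10 min RT preincubation, enzyme with inhibitor series in reaction buffer. Substrate nitrocefin; kinetic read 490 nm, 10 sec intervals, 10 min total.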

In assay [1] the test system is KP1004 (KPC-2). Description: Aztreonam potentiation (MPC@4), KP1004. Conditions: BLI with aztreonam at 4 μg/mL. The assay is classed as cell-based.
Assay [2] concerns ec302 (TEM-10). Put plainly: Aztreonam potentiation (MPC@4), ec302. Format: cell-based. Conditions: BLI with aztreonam at 4 μg/mL.
In assay [3] the test system is ECL1002. Put plainly: Tigemonam potentiation (MPC@4), ECL1002. Format: cell-based. Conditions: BLI with tigemonam at 4 μg/mL.
Another assay deals with KP1086 (OXA-48). Description: Biapenem potentiation (MPC@1), KP1086. The following applies: BLI with biapenem at 1 μg/mL.
For assay [4], the system named is ec302 (TEM-10). Put plainly: Tigemonam potentiation (MPC@4), ec302. Format: cell-based.
A further assay has as its target P99 (Enterobacter cloacae, UniProt P05364). Description: Ki, nitrocefin cleavage by purified enzyme, P99. Format: biochemical. Conditions: nitrocefin reporter substrate; read-out: Ki (P99, NCF). The procedure, abridged: as §1
The test system of assay [5] is EC1010 (CMY-6). Put plainly: organism not typed. The assay is classed as cell-based.
Assay [6] deals with KP1004 (KPC-2). Put plainly: Biapenem potentiation (MPC@1), KP1004. The following applies: BLI with biapenem at 1 μg/mL.
Assay [7] deals with ECL1002. Put plainly: Aztreonam potentiation (MPC@4), ECL1002. Format: cell-based. Conditions: BLI with aztreonam at 4 μg/mL.
Another assay addresses SHV-12 (Klebsiella pneumoniae, UniProt P0AD64, E235K/G234S/L31Q). Put plainly: Ki, nitrocefin cleavage by purified enzyme, SHV-12. Format: biochemical. Conditions: nitrocefin reporter substrate; read-out: Ki (SHV-12, NCF). The procedure, abridged:
as §1

Assay [8] has as its system EC1010 (CMY-6). Put plainly: Tigemonam potentiation (MPC@4), EC1010. The assay is classed as cell-based. The following applies: BLI with tigemonam at 4 μg/mL.
For another assay, the system named is KP1010 (SHV-12). Put plainly: Tigemonam potentiation (MPC@4), KP1010. The assay is classed as cell-based.
In assay [9] the test system is KP1009 (CTX-M-15). Description: Tigemonam potentiation (MPC@4), KP1009. Format: cell-based. Conditions: BLI with tigemonam at 4 μg/mL.
The target of a further assay is CTX-M-14 (Escherichia coli, UniProt Q9L5C7). Description: Ki, nitrocefin cleavage by purified enzyme, CTX-M-14. Conditions: nitrocefin reporter substrate; read-out: Ki (CTX-M-14, NCF). The assay is classed as biochemical. Put shortly: as §1
Another assay has as its target Pa AmpC (Pseudomonas aeruginosa, UniProt P24735). Put plainly: Ki, nitrocefin cleavage by purified enzyme, Pa AmpC. Format: biochemical. Conditions: nitrocefin reporter substrate; read-out: Ki (Pa AmpC, NCF). The procedure, abridged: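 Ki values were determined with nitrocefin as the reporter substrate. Purified enzymes were incubated with several inhibitor concentrations for 10 min at room temperature before substrate addition, and cleavage was monitored at 490 nm for 10 min.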

The target in the next assay is OXA-48 (Klebsiella pneumoniae, UniProt Q6XEC0). Put plainly: Ki, nitrocefin cleavage by purified enzyme, OXA-48. The assay is classed as biochemical. The following applies: nitrocefin reporter substrate; read-out: Ki (OXA-48, NCF). Put shortly:
as §1

For the next assay, the system named is ec308 (SHV-5). Description: Tigemonam potentiation (MPC@4), ec308. Format: cell-based.
In assay [10] the test system is KP1009 (CTX-M-15). Description: organism not typed. The assay is classed as cell-based.
Assay [11] has as its system KP1005 (CTX-M-14). Put plainly: Tigemonam potentiation (MPC@4), KP1005. Format: cell-based. Conditions: BLI with tigemonam at 4 μg/mL.
The test system of assay [12] is KP1005 (CTX-M-14). Put plainly: Aztreonam potentiation (MPC@4), KP1005. Conditions: BLI with aztreonam at 4 μg/mL. The assay is classed as cell-based.

Each structure is given as a SMILES string.

Chain of KPC-2 (Q9F663 25-293, looked up, species assumed): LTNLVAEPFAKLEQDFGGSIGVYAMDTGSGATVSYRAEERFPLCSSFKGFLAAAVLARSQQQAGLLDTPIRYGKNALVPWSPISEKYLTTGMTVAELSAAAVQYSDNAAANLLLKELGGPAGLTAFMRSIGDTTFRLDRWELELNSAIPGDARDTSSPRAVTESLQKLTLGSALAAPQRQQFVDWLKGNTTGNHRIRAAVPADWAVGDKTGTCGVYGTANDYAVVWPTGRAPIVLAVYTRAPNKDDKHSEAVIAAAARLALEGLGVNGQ
Chain of SHV-12 (P0AD64 22-286 L31Q/G234S/E235K): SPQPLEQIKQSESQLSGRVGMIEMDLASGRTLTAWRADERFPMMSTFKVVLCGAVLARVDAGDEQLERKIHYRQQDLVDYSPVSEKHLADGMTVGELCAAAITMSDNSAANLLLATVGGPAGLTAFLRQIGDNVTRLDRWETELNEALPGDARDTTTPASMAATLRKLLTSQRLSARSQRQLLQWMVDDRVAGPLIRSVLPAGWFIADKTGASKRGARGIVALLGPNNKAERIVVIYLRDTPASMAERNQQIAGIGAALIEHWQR
Chain of CTX-M-14 (Q9L5C7 29-291): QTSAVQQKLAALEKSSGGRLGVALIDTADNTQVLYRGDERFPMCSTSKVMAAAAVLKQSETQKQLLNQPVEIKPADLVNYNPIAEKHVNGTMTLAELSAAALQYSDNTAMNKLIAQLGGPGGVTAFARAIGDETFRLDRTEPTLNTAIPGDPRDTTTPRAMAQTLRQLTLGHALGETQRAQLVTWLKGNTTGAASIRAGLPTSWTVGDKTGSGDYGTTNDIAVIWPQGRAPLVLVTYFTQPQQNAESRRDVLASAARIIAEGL
Chain of OXA-48 (Q6XEC0 23-265, looked up, species assumed): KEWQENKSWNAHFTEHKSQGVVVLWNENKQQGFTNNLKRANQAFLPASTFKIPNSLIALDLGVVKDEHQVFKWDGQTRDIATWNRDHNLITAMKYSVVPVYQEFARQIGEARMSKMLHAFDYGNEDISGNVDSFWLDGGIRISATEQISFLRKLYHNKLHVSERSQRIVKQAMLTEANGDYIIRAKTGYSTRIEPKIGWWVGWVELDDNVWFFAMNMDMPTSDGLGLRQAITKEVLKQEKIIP
Chain of P99 (P05364 21-381): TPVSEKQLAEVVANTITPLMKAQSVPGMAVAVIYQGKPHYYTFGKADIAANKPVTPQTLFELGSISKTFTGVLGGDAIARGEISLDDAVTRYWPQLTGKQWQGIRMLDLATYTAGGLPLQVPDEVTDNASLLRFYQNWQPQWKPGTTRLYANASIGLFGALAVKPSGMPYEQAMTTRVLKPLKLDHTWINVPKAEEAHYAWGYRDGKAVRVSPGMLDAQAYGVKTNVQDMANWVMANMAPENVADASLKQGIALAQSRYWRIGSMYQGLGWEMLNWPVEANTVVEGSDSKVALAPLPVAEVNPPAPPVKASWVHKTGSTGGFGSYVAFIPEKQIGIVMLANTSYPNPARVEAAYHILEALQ
Chain of Pa AmpC (P24735 27-397): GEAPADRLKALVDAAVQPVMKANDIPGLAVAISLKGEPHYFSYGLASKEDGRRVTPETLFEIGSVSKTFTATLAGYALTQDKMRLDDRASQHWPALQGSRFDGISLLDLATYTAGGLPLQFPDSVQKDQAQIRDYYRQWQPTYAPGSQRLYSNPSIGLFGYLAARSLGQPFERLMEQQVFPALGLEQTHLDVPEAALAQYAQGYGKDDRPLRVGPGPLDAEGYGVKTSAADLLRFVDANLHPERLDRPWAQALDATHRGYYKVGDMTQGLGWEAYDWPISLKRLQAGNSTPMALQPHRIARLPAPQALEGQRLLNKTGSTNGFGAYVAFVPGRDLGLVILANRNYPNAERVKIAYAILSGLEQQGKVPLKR

A word on the Ki: it is the equilibrium dissociation constant of an inhibitor or competing ligand from its target. Consider `Nc1nnc(C(=O)N[C@H]2Cc3ccc(F)c(C(=O)O)c3OB2O)s1` [Compound 8, (R)-3-(5-amino-1,3,4-thiadiazole-2-carboxamido)-7-fluoro-2-hydroxy-3,4-dihydro-2H-benzo[e][1,2]oxaborinine-8-carboxylic acid], for which the Ki at KPC-2 is > 10 nM; at P99 it was > 10 nM; at SHV-12 it was < 1 nM; at CTX-M-14, < 1 nM; on Pa AmpC, > 10 nM; on OXA-48 it was < 1 nM. Moreover, in the assay with KP1004 (KPC-2) [1], the “AZT MPC4 KPC-2 KP1004” value is given as “Y (MIC of 1 μg/mL to 10 μg/mL)”. Besides, the “AZT MPC4 TEM-10 ec302” value with ec302 (TEM-10) [2] is listed as “Y (MIC of 1 μg/mL to 10 μg/mL)”. Also, the “TIG MPC4 ECL1002” value in the assay with ECL1002 [3] is on record as “Y (MIC of 1 μg/mL to 10 μg/mL)”. Besides, in the assay with KP1086 (OXA-48), the “BPM MPC1 OXA-48 KP1086” value is “Y (MIC of 1 μg/mL to 10 μg/mL)”. In addition, the “TIG MPC4 TEM-10 ec302” value in the assay on ec302 (TEM-10) [4] is given as “Y (key: X: MIC of less than 1 ng/mL; Y: MIC of 1 μg/mL to 10 μg/mL; Z: MIC of greater than 10 μg/mL)”. The “AZT MPC4 CMY-6 EC1010” value in the assay on EC1010 (CMY-6) [5] is “Y (key: X: MIC of less than 1 ng/mL; Y: MIC of 1 μg/mL to 10 μg/mL; Z: MIC of greater than 10 μg/mL)”. Further, the “BPM MPC1 KP1004 KPC-2” value with KP1004 (KPC-2) [6] was “X (MIC of less than 1 μg/mL)”. The “AZT MPC4 ECL1002” value with ECL1002 [7] is reported as “Y (MIC of 1 μg/mL to 10 μg/mL)”. For the same molecule, the “TIG MPC4 CMY-6 EC1010” value in the assay with EC1010 (CMY-6) [8] is given as “X (MIC of less than 1 μg/mL)”. In addition, in the assay on KP1010 (SHV-12), the “TIG MPC4 SHV-12 KP1010” value is “X (key: X: MIC of less than 1 μg/mL; Y: MIC of 1 μg/mL to 10 μg/mL; Z: MIC of greater than 10 μg/mL)”. Moreover, in the assay on KP1009 (CTX-M-15) [9], the “TIG MPC4 CTX-M-15 KP1009” value is “Y (MIC of 1 μg/mL to 10 μg/mL)”. Besides, the “TIG MPC4 SHV-5 ec308” value in the assay on ec308 (SHV-5) is on record as “X (key: X: MIC of less than 1 μg/mL; Y: MIC of 1 μg/mL to 10 μg/mL; Z: MIC of greater than 10 μg/mL)”. In the assay with KP1009 (CTX-M-15) [10], the “AZT MPC4 CTX-M-15 KP1009” value was “Y (key: X: MIC of less than 1 ng/mL; Y: MIC of 1 μg/mL to 10 μg/mL; Z: MIC of greater than 10 μg/mL)”. Also, in the assay with KP1005 (CTX-M-14) [11], the “TIG MPC4 CTX-M-14 KP1005” value is “Y (MIC of 1 μg/mL to 10 μg/mL)”. For the same molecule, the “AZT MPC4 CTX-M-14 KP1005” value with KP1005 (CTX-M-14) [12] is recorded as “Y (MIC of 1 μg/mL to 10 μg/mL)”.

In the case of `CS(=O)(=O)CC(=O)N[C@H]1Cc2ccc(F)c(C(=O)O)c2OB1O` [Compound 9, (R)-7-fluoro-2-hydroxy-3-(2-(methylsulfonyl)acetamido)-3,4-dihydro-2H-benzo[e][1,2]oxaborinine-8-carboxylic acid], the Ki was > 10 nM on KPC-2; > 10 nM on P99; < 1 nM at SHV-12; 1 to 10 nM on CTX-M-14; > 10 nM at Pa AmpC; > 10 nM on OXA-48. Besides, the “AZT MPC4 KPC-2 KP1004” value in the assay on KP1004 (KPC-2) [1] is listed as “Y (MIC of 1 μg/mL to 10 μg/mL)”. Also, the “AZT MPC4 TEM-10 ec302” value in the assay with ec302 (TEM-10) [2] is given as “Y (MIC of 1 μg/mL to 10 μg/mL)”. Also, the “TIG MPC4 ECL1002” value with ECL1002 [3] is listed as “X (MIC of less than 1 μg/mL)”. Besides, in the assay with KP1086 (OXA-48), the “BPM MPC1 OXA-48 KP1086” value was “Z (MIC of greater than 10 μg/mL)”. In addition, the “TIG MPC4 TEM-10 ec302” value with ec302 (TEM-10) [4] is “Z (key: X: MIC of less than 1 ng/mL; Y: MIC of 1 μg/mL to 10 μg/mL; Z: MIC of greater than 10 μg/mL)”. The “AZT MPC4 CMY-6 EC1010” value in the assay with EC1010 (CMY-6) [5] is “Y (key: X: MIC of less than 1 ng/mL; Y: MIC of 1 μg/mL to 10 μg/mL; Z: MIC of greater than 10 μg/mL)”. In addition, in the assay on KP1004 (KPC-2) [6], the “BPM MPC1 KP1004 KPC-2” value is reported as “X (MIC of less than 1 μg/mL)”. In addition, in the assay with ECL1002 [7], the “AZT MPC4 ECL1002” value is reported as “Y (MIC of 1 μg/mL to 10 μg/mL)”. For the same molecule, the “TIG MPC4 CMY-6 EC1010” value in the assay with EC1010 (CMY-6) [8] was “X (MIC of less than 1 μg/mL)”. For the same molecule, the “TIG MPC4 SHV-12 KP1010” value in the assay with KP1010 (SHV-12) is reported as “X (key: X: MIC of less than 1 μg/mL; Y: MIC of 1 μg/mL to 10 μg/mL; Z: MIC of greater than 10 μg/mL)”. For the same molecule, the “TIG MPC4 CTX-M-15 KP1009” value with KP1009 (CTX-M-15) [9] was “Y (MIC of 1 μg/mL to 10 μg/mL)”. In addition, the “TIG MPC4 SHV-5 ec308” value with ec308 (SHV-5) is “X (key: X: MIC of less than 1 μg/mL; Y: MIC of 1 μg/mL to 10 μg/mL; Z: MIC of greater than 10 μg/mL)”. Also, the “AZT MPC4 CTX-M-15 KP1009” value with KP1009 (CTX-M-15) [10] is “Y (key: X: MIC of less than 1 ng/mL; Y: MIC of 1 μg/mL to 10 μg/mL; Z: MIC of greater than 10 μg/mL)”. Also, in the assay on KP1005 (CTX-M-14) [11], the “TIG MPC4 CTX-M-14 KP1005” value is on record as “Y (MIC of 1 μg/mL to 10 μg/mL)”. The “AZT MPC4 CTX-M-14 KP1005” value with KP1005 (CTX-M-14) [12] was “Y (MIC of 1 μg/mL to 10 μg/mL)”.

Values taken from patent US9963467B2, “Boronic acid derivatives and therapeutic uses thereof” (Rempex Pharmaceuticals, Inc., priority 2014, dated 2018).
